The values that follow come from US20030207932A1, “Compositions that prevent post-traumatic hyperpigmentation and methods related thereto” (priority 2002, published 2003).

For the test, the system named is patients with a strong genetic predisposition to post traumatic hyperpigmentation. The test can be described thus: Proof of concept in patients predisposed to post traumatic hyperpigmentation. In kind it is in vivo, human. As to conditions: five subjects; oral zafirlukast alone, 20 mg two times daily, two weeks prior and thereafter for two months. As to the method: The patients were known to have this predisposition because prior trauma pigmented areas. Five of the subjects were given the oral composition zafirlukast, two weeks prior and thereafter for two months. The dosage was 20 mg two time daily. The other five individuals were give the same medication that the same dosage for the same amount of time, but in addition, were also given a topical preparation.
Five further patients were then selected with obvious genetic predisposition to post traumatic hyperpigmentation. They were given only the topical composition after their surgical procedure. The topical composition was applied three times daily for two months after the procedure. […] This was completely unexpected. The topical composition, as administered, is described in Table 1 below.

Molecules are shown by their SMILES.

As for `COc1cc(C(=O)NS(=O)(=O)c2ccccc2C)ccc1Cc1cn(C)c2ccc(NC(=O)OC3CCCC3)cc12` [zafirlukast], the development of hyperpigmentation entry is listed as “In no case did hyperpigmentation develop”.
